Legend:
[1] = system: NOS3-NLuc-2A-tdTomato hPSCs; test: Arterial endothelial cell (AEC) differentiation, flow cytometry for CD144+ DLL4+ cells; assay type: cell-based, human; settings: for AEC differentiation from PSCs: general statement, timing not given
Text: FIG. 3A is a bar graph showing arterial endothelial cell differentiation in response to treatment on days 2 through 6 of different concentrations of compounds identified in compound screening assays. Differentiated arterial endothelial cells were identified by flow cytometry for CD144+ DLL4+ cells after 6 days of treatment.
FIG. 3B is a bar graph showing arterial endothelial cell differentiation in response to three specific compounds at day 3-6 of differentiation.
NOS3-NLuc-Tom human pluripotent stem cells (hPSCs), prepared as set forth above, were cultured in E8BAC medium for two days (day 0-2) to induce mesoderm formation. On days 2-5 cells received Five Factor medium daily, and AEC collected on day 6. More than 90% of the resulting cells were CD144^+CXCR4^+DLL4^+, consistent with differentiation to AEC cells.
C21-C33 compounds were further tested to confirm their effects. […] Thus, the effects of C21, C22, and C24-C31 on AEC differentiation from NOS3-NLuc-2A-tdTomato hPSCs were measured.

[2] = system: AECs; test: Nitric oxide (NO) production assay with DAF-FM; assay type: cell-based, human; settings: AECs treated for 2 days, 1 μM DAF-FM, flow cytometry (FIG. 4A, 4B)
Description: FIG. 4A is a graph of nitric oxide (NO) production in response to contacting NOS3-NLuc-2A-tdTomato construct-containing reporter cells derived from arterial endothelial with compounds identified in the screen for 2 days.
These AECs were seeded on a vitronectin-coated 24-well plate (1×10^5 cells/well) with FVIR medium. Candidate compounds were added to the medium. Two days later, the medium was changed to fresh FVIR media containing 1 μM DAF-FM (4-Amino-5-Methylamino-2′,7′-Difluorofluorescein Diacetate). Cells were cultured for 30 mins and harvested for flow cytometric analysis. DAF-FM is nonfluorescent until it reacts with NO to form a fluorescent benzotriazole. Results of these experiments are shown in FIG. 3A, FIG. 3B, and FIG. 4.

[3] = compound added from day 2 to day 6 of differentiation, dose-dependent (FIG. 3A)
[4] = compound added from day 3 to day 6 of differentiation (FIG. 3B)

| Structure (SMILES) | percentage of AEC on day 6 compared to control treatment [1, 3] | percentage of AEC on day 6 compared to control treatment [1, 4] | AEC differentiation from PSCs [1] | NO production (DAF-FM fluorescence) compared to control treatment [2] |
| --- | --- | --- | --- | --- |
| O=S(=O)(N1CCCCCC1)N1CCN(c2ccnc3cc(Cl)ccc23)CC1 [C21] | increase | increased | increase | increase |
| COc1ccc(C2CCCN2Cc2cc(C(C)(C)C)cc(O)c2O)cc1 (centres unmarked) [C22] | increase |  | increase | increase |
| CCc1ccc(S(=O)(=O)N2CCCc3cc(C)ccc32)cc1 [C23] |  | increased | increase | increase |
| Cc1ccc(CN2C(=O)NC(C)(c3ccc(Cl)cc3Cl)C2=O)cc1 (centres unmarked) [C24] |  |  | increase | increase |
| CNS(=O)(=O)c1ccc(NC2CCc3ccccc32)c([N+](=O)[O-])c1 (centres unmarked) [C25] |  |  | increase |  |
| CC1=CC(=O)C2=C(C)CC[C@@H]3[C@H](OC(=O)[C@H]3C)[C@@H]12 [C28, Leucomisine] |  |  | increase |  |
| CNC(=O)c1c(F)cccc1Nc1nc(Nc2cc3c(cc2OC)CCN3C(=O)CN(C)C)nc2[nH]ccc12 [C31, GSK1838705A, reference compound] |  |  |  | increase |
| CCCCCCCCCCCCCCCCCCOCC(COP(=O)([O-])OCC[N+](C)(C)C)OC (centres unmarked) [C33, 1-Octadecyl-2-methylglycero-3 PC] |  | increased | increase |  |

Source: patent publication US20240319173A1, “REAGENTS AND METHODS FOR PROMOTING ARTERIAL ENDOTHELIUM DIFFERENTIATION AND NITRIC OXIDE PRODUCTION” (Wisconsin Alumni Research Foundation, priority 2023, published 2024)
